Source: patent US20110207796A1, “ALPHA-SYNUCLEIN KINASE” (Elan Pharma International Limited, priority 2008, published 2011)
Read-outs that look alike come from different tables or passages of the source.

Columns and labels:
PLK2 [1] = target: T1, PLK2 (Homo sapiens, UniProt Q9NYY3); assay: in vitro biochemical assay of PLK2-driven synuclein phosphorylation
Description: The reaction was incubated at 37° C. The activity was analyzed by autoradiography.
In vitro biochemical assays using each of the four PLK family members as the kinase to phosphorylate synuclein were conducted.

[2] = test system: synuclein phosphorylation by endogenous kinase; assay: kinase inhibitor treatment of mouse cortical cultures (MCC), total and phospho-synuclein ELISA; type: cell-based
Description: Mouse cortical cultures from fetal (i) Swiss-Webster, (ii) C56BL/6 WT and (iii) C56BL/6 E46K-Synuclein Trangenic mice were prepared and maintained in B27/DMEM/1% Penicillin-Streptomycin at 37° C./10% CO2 for three to fourteen days and then treated with kinase inhibitors.
Cultures were exposed to inhibitors for two hours in B27/DMEM/1% Penicillin-Streptomycin. Cells were immediately washed in 100 μL of PBS plus Mg^2+ and Ca^2+, and harvested in ice-cold CEB minus EGTA plus protease inhibitors, frozen on dry ice and stored at −80° C. until processed. A Micro BCA (Pierce) total protein assay, and total synuclein and phospho-synuclein ELISAs were performed on each plate of treated cells using standard methods.

[3] = test system: synuclein phosphorylation by constitutively active PLK2 (caPLK2); assay: kinase inhibitor treatment of RVM cultures transduced with E46K-synuclein plus ca-PLK2; type: cell-based; conditions: rat ventral mesencephalon cultures
Description: (§1) Rat Ventral Mesencephalon (RVM) cultures were prepared from E15 Wistar rats. The RVM cultures were cultured for 2 days and transduced with 0.75 MOI E46K-Synuclein lentivirus alone, or 0.75 MOI E46K-Synuclein lentivirus plus 0.75 MOI ca-PLK2 lentivirus. […] Transduced cultures were maintained in neuronal media with B27/1% FBS and 37° C./5% CO2 until treated with inhibitors. On DIV 17 (which corresponds to 15 days after viral transduction of the cultures) cells were treated with inhibitors for two hours. Cells were then harvested as detailed above in neuronal media with B27/1% FBS. A Micro BCA (Pierce) total protein assay, and total synuclein and phospho-synuclein ELISAs were performed on each plate of treated cells using standard methods.

[4] = test system: synuclein phosphorylation (serine-129); assay: inhibition of synuclein phosphorylation across the cellular paradigms (primary neuronal cultures and 293 cells); type: cell-based, mouse, rat and human; conditions: Homo sapiens, HEK293, read-out: EC50 inhibition of synuclein phosphorylation, cellular paradigms
PLK2 [5] = target: T1, PLK2; assay: HEK-293 cells overexpressing synuclein and PLK2, inhibition of synuclein phosphorylation; type: cell-based; parameters: expressed in transfected cells; host or cells: HEK-293
Description: (§2) All vectors had the sequence coding for the protein of interest. Transfection was accomplished using Lipofectamine 2000 (Invitrogen, Carlsbad, Calif.) with 0.08 μg vector. Cells were washed and harvested 48 hours post-transfection. A Micro BCA (Pierce) total protein assay and total synuclein and phospho-synuclein ELISAs were performed on each plate of treated cells.

[6] = test system: synuclein phosphorylation by endogenous kinase; assay: kinase inhibitor treatment of rat ventral mesencephalon (RVM) cultures transduced with E46K-synuclein; type: cell-based
Description: as §1

[7] = test system: endogenous kinase (synuclein phosphorylation); assay: HEK-293 cells overexpressing synuclein with empty vector, inhibition of synuclein phosphorylation; type: cell-based, human; conditions: 293 cells; for EC50: Homo sapiens, HEK293, Table 18, read-out: EC50, Endogenous Kinase (293)
Description: as §2

[8] = test system: synuclein phosphorylation; assay: overexpression of PLK family members with WT-synuclein in HEK-293 cells, phospho-synuclein ELISA; type: cell-based, human
Description: as §2, with “HEK-293 naïve cells were transfected with an expression vector encoding PLK1, PLK2, PLK3, or PLK4 under the control of a CMV promoter, or empty vector, together with an expression vector encoding WT-synuclein. All” for “All”

[9] = in vitro PLK2-driven synuclein phosphorylation, read-out: IC50, Straight Biochemical
[10] = E46K-Synuclein transgenic mouse cortical cultures, read-out: EC50, E46K-Syn TG MCC
[11] = WT mouse cortical cultures, read-out: EC50, WT-MCC

T1 sequence (Q9NYY3 whole entry): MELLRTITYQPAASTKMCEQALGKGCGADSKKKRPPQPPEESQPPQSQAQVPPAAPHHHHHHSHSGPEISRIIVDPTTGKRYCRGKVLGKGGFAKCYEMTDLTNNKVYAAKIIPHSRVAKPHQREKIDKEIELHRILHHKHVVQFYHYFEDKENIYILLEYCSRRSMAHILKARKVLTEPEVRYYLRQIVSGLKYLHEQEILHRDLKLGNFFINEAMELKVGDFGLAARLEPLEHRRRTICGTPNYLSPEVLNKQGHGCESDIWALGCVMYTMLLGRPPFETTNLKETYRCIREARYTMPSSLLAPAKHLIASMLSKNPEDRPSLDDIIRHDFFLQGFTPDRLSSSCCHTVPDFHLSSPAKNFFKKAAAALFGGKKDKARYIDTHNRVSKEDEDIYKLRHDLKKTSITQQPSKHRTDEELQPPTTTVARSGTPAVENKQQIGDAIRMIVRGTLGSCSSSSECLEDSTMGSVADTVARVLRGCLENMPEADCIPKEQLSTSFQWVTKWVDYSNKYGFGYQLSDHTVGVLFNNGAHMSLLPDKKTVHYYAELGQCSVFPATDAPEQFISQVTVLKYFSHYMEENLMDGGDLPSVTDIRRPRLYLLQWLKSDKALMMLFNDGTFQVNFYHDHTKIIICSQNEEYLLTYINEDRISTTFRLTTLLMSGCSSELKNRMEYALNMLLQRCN

Molecule: COC(=O)[C@@]1(O)C[C@H]2O[C@]1(C)n1c3ccccc3c3c4c(c5c6ccccc6n2c5c31)C(=O)NC4 [Compound K252A]
- rank order of potency, Straight Biochemical (PLK2 [1]): 4
- IC50 (PLK2 [1]; PLK2-driven synuclein phosphorylation, read-out: IC50 in the in vitro biochemical assay): > 10 µM
- IC50 (PLK2 [1]; [9]): > 10 µM
- rank order of potency, E46K-Syn TG MCC ([2]; E46K-Synuclein transgenic mouse cortical cultures): 2
- EC50 [2, 10]: 3.1 µM
- rank order of potency, Swiss-Webster MCC ([2]; Swiss-Webster mouse cortical cultures): 2
- EC50 ([2]; Swiss-Webster mouse cortical cultures, read-out: EC50, Swiss-Webster MCC): 2.9 µM
- rank order of potency, WT-MCC ([2]; WT mouse cortical cultures): 2
- EC50 [2, 11]: 3 µM
- EC50 [3]: 3.5 µM
- rank order of potency, RVM E46K-Synuclein caPLK2 [3]: 2
- EC50 [4]: 3 to 7 µM
- rank order of potency, Over-Expressed PLK2 (293) (PLK2 [5]): 2
- EC50 (PLK2 [5]; 293 cells, Table 18, read-out: EC50, Over-Expressed PLK2 (293)): 7.1 µM
- EC50 [6]: 3.2 µM
- rank order of potency, RVM E46K-Synuclein [6]: 3
- rank order of potency, Endogenous Kinase (293) ([7]; Table 19): 2
- EC50 [7]: 3.6 µM

Molecule: Brc1c(Br)c(Br)c2[nH]nnc2c1Br [TBB]
- effect on synuclein phosphorylation ([2]; MCC, even at concentrations of 100 μM): no effect

Molecule: COC[C@H]1OC(=O)c2coc3c2[C@@]1(C)C1=C(C3=O)[C@@H]2CCC(=O)[C@@]2(C)C[C@H]1OC(C)=O [Wortmannin]
- IC50 (PLK2 [1]; [9]): > 100 µM
- EC50 [2, 10]: > 100 µM
- EC50 [2, 11]: > 100 µM
- EC50 [3]: > 100 µM
- EC50 (PLK2 [5]): > 100 µM
- EC50 [6]: > 100 µM
- EC50 [7]: > 100 µM

Molecule: Over-Expressed PLK1
- Proportion of total synuclein that is phoshorylated at ser-129 ([8]; 48 hours post-transfection, with WT-synuclein): 4.1%
- Fold Change in Percent Synuclein Phosphorylation ([8]; relative to endogenous kinase (2.0%)): 2.1
